# Reference: PMC11864979, “First-in-class ultralong-target-residence-time p38α inhibitors as a mitosis-targeted therapy for colorectal cancer” (Nature Cancer, 2025)
# Read-outs that look alike come from different tables or passages of the source.
# Experiments:
# Experiment in all cases: selectivity profiling in a panel of 340 wild-type kinases (Reaction Biology Europe)
# Assay type in all cases: binding
# [1] = biological target: T1, 340 wild-type kinases (Homo sapiens, UniProt O14757)
# T1 construct: purchased Reaction Biology Europe
# T1 sequence (O14757 1-476): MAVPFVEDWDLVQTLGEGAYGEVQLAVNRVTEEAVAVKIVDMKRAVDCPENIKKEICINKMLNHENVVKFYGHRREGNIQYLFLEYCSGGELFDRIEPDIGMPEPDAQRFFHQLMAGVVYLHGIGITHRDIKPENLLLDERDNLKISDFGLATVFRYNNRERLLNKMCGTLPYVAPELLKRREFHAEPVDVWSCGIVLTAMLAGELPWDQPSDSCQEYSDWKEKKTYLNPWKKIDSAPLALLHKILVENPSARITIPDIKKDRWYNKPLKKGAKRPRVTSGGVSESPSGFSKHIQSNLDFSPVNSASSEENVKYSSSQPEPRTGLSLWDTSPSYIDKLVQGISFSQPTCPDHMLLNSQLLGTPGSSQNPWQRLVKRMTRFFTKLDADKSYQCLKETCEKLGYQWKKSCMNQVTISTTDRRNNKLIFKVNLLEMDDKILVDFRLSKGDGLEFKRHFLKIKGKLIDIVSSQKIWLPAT
# [2] = biological target: T2, 340 wild-type kinases (Homo sapiens, UniProt P78362)
# T2 construct: purchased Reaction Biology Europe
# [3] = biological target: T3, 340 wild-type kinases (Homo sapiens, UniProt Q96PF2)
# T3 construct: purchased Reaction Biology Europe
# T3 sequence (Q96PF2 1-358): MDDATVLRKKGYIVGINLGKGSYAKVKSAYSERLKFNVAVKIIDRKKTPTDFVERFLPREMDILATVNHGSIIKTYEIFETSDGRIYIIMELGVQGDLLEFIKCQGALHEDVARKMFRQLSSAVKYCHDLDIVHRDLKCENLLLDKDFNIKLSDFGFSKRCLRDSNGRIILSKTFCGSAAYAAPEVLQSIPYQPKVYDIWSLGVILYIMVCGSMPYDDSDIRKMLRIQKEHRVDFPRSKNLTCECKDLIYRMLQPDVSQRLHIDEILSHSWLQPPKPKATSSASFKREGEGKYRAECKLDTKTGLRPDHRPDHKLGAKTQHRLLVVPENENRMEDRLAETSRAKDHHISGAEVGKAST
# [4] = biological target: T4, 340 wild-type kinases (Homo sapiens, UniProt Q9UBE8)
# T4 construct: purchased Reaction Biology Europe
# T4 sequence (Q9UBE8 1-527): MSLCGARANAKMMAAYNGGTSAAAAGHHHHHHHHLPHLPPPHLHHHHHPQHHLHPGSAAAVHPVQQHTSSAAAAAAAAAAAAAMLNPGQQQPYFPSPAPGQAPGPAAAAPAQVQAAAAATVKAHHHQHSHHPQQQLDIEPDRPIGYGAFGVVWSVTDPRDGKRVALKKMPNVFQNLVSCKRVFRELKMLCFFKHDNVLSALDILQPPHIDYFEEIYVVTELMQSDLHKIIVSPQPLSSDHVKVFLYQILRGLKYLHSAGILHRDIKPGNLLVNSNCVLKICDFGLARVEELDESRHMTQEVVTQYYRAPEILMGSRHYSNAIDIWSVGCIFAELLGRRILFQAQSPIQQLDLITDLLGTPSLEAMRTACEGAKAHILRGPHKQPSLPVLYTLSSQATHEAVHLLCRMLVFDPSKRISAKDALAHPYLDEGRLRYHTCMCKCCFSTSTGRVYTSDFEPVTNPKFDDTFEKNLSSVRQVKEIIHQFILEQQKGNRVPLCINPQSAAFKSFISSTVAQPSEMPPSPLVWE
# [5] = biological target: T5, 340 wild-type kinases (Homo sapiens, UniProt Q9Y3S1)
# T5 construct: purchased Reaction Biology Europe
# [6] = biological target: T6, 340 wild-type kinases (Homo sapiens, UniProt P41279)
# T6 construct: purchased Reaction Biology Europe
# [7] = biological target: T7, 340 wild-type kinases (Homo sapiens, UniProt Q9NYY3)
# T7 construct: purchased Reaction Biology Europe
# [8] = biological target: T8, 340 wild-type kinases (Homo sapiens, UniProt P16591)
# T8 construct: purchased Reaction Biology Europe
# [9] = biological target: T9, 340 wild-type kinases (Homo sapiens, UniProt P23458)
# T9 construct: purchased Reaction Biology Europe
# T9 sequence (P23458 whole entry): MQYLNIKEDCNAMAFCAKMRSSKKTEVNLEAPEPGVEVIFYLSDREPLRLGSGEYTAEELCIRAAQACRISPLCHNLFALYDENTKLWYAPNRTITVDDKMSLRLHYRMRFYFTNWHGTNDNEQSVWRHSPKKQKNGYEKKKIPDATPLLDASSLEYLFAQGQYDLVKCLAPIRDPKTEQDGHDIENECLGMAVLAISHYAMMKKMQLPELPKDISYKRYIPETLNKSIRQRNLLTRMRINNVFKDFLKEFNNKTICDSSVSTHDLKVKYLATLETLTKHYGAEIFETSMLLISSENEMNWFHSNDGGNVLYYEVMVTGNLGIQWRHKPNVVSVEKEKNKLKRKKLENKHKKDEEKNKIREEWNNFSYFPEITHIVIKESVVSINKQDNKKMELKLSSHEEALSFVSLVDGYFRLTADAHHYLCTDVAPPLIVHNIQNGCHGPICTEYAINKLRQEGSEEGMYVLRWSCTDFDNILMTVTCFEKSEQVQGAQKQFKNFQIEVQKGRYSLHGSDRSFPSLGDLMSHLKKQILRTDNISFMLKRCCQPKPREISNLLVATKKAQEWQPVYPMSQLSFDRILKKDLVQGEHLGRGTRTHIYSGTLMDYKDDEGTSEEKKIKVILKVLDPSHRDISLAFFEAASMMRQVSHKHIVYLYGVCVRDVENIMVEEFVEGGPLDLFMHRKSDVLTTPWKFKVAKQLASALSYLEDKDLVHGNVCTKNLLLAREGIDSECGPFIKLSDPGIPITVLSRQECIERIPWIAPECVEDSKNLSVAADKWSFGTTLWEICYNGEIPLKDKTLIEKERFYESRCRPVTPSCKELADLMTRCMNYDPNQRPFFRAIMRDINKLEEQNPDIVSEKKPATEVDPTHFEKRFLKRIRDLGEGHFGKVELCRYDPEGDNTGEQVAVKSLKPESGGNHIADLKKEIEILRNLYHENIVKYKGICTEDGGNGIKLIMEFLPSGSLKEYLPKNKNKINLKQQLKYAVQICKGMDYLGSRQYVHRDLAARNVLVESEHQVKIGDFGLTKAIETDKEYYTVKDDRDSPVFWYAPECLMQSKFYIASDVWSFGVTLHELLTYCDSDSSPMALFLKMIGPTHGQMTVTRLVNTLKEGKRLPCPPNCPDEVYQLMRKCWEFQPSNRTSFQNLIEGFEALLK
# T2 sequence (P78362 whole entry): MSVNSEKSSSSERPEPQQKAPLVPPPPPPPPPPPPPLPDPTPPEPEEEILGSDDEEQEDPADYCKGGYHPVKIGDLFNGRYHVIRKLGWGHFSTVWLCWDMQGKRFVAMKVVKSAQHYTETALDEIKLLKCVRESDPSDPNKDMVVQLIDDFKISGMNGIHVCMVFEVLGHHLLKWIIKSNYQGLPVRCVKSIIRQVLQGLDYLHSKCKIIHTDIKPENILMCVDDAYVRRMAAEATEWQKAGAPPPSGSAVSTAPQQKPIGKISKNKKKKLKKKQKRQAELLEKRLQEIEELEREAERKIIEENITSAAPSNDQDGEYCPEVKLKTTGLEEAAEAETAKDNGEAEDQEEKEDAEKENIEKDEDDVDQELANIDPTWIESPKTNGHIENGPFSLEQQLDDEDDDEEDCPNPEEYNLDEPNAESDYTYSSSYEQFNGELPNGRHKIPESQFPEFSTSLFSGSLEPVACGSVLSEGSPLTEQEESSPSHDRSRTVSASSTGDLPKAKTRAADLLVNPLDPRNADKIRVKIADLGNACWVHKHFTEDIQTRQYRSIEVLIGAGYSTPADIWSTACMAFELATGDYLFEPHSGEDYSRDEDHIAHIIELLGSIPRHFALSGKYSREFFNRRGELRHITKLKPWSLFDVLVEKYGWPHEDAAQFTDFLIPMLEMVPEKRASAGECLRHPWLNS
# T6 sequence (P41279 whole entry): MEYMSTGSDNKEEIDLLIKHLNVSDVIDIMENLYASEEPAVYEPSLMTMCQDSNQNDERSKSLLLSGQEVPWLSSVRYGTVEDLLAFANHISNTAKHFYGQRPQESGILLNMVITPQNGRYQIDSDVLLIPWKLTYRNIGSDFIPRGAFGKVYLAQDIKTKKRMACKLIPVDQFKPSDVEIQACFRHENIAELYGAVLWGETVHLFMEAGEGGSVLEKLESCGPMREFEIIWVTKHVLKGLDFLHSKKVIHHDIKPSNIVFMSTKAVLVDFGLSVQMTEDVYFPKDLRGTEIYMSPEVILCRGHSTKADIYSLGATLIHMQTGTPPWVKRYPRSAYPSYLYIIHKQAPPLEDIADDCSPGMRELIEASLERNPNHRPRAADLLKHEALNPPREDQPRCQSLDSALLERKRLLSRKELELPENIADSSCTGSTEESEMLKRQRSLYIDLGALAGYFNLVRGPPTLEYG
# T7 sequence (Q9NYY3 whole entry): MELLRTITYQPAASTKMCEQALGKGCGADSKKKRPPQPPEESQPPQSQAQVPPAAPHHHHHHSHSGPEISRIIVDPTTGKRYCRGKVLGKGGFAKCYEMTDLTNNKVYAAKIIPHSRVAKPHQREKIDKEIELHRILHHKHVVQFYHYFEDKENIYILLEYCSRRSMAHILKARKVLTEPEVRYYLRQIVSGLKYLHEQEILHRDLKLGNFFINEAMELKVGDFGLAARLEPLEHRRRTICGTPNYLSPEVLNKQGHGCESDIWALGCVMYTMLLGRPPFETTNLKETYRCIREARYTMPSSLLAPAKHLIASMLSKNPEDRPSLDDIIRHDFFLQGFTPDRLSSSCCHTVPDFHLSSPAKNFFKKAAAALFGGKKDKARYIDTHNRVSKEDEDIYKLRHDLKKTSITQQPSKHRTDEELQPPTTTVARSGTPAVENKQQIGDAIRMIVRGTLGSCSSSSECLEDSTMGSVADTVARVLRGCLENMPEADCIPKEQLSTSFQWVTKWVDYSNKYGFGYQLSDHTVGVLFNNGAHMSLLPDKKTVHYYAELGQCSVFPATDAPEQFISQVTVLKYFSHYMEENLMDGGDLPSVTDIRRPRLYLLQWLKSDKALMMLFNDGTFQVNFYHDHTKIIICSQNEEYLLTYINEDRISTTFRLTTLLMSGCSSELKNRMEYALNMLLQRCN
# T8 sequence (P16591 whole entry): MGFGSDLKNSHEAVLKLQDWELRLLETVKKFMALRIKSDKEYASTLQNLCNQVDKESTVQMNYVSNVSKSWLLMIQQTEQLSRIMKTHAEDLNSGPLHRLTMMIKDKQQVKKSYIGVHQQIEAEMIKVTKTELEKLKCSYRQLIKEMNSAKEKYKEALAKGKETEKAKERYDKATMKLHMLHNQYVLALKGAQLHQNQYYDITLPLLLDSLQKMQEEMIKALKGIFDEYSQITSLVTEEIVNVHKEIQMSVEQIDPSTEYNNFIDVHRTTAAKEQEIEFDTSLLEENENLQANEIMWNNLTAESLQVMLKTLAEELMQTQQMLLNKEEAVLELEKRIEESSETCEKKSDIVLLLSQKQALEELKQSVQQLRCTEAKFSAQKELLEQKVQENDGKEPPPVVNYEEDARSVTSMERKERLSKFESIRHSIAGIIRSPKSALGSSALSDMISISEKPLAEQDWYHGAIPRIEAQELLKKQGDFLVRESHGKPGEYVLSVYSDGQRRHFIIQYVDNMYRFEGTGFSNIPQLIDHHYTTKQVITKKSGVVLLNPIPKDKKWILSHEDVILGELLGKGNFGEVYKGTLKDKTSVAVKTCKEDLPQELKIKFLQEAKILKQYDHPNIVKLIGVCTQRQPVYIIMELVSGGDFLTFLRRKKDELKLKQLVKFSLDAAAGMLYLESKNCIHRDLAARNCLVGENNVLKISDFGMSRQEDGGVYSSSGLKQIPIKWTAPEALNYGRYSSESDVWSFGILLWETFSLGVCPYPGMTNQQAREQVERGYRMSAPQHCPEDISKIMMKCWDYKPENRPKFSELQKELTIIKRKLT
structure (smiles),measurement,setting,value
CNC(=O)c1ccc2c(c1)C(=O)c1ccc(Nc3ccc(F)c(NC(=O)C4CC4)c3)cc1CC2 [Compound 2015],remaining activity at 0.2 µM,"[1]; 0.2 µM 2015, read-out: CHK1 residual activity",88.2%
same,remaining activity at 1 µM,"[1]; 1 µM 2015, read-out: CHK1 residual activity",87.9%
same,remaining activity at 0.2 µM,"[1]; CHK1, 0.2 µM, read-out: residual activity",88.2%
same,remaining activity at 1 µM,"[1]; CHK1, 1 µM, read-out: residual activity",87.8%
same,remaining activity at 0.2 µM,"[2]; 0.2 µM 2015, read-out: SRPK2 residual activity",89.5%
same,remaining activity at 1 µM,"[2]; 1 µM 2015, read-out: SRPK2 residual activity",91.2%
same,remaining activity at 0.2 µM,"[2]; SRPK2, 0.2 µM, read-out: residual activity",89.5%
same,remaining activity at 1 µM,"[2]; SRPK2, 1 µM, read-out: residual activity",91.2%
same,remaining activity at 0.2 µM,"[3]; 0.2 µM 2015, read-out: TSK2 residual activity",104%
same,remaining activity at 1 µM,"[3]; 1 µM 2015, read-out: TSK2 residual activity",106%
same,remaining activity at 0.2 µM,"[3]; TSK2, 0.2 µM, read-out: residual activity",104%
same,remaining activity at 1 µM,"[3]; TSK2, 1 µM, read-out: residual activity",106%
same,remaining activity at 0.2 µM,"[4]; 0.2 µM 2015, read-out: NLK residual activity",92%
same,remaining activity at 1 µM,"[4]; 1 µM 2015, read-out: NLK residual activity",85.5%
same,remaining activity at 0.2 µM,"[4]; NLK, 0.2 µM, read-out: residual activity",92%
same,remaining activity at 1 µM,"[4]; NLK, 1 µM, read-out: residual activity",85.5%
same,remaining activity at 0.2 µM,"[5]; 0.2 µM 2015, read-out: WNK2 residual activity",107%
same,remaining activity at 1 µM,"[5]; 1 µM 2015, read-out: WNK2 residual activity",111%
same,remaining activity at 0.2 µM,"[5]; WNK2, 0.2 µM, read-out: residual activity",107%
same,remaining activity at 1 µM,"[5]; WNK2, 1 µM, read-out: residual activity",111%
same,remaining activity at 0.2 µM,"[6]; 0.2 µM 2015, read-out: COT residual activity",98.6%
same,remaining activity at 1 µM,"[6]; 1 µM 2015, read-out: COT residual activity",97.4%
same,remaining activity at 0.2 µM,"[6]; COT, 0.2 µM, read-out: residual activity",98.6%
same,remaining activity at 1 µM,"[6]; COT, 1 µM, read-out: residual activity",97.4%
same,remaining activity at 0.2 µM,"[7]; 0.2 µM 2015, read-out: SNK residual activity",103%
same,remaining activity at 1 µM,"[7]; 1 µM 2015, read-out: SNK residual activity",97.3%
same,remaining activity at 0.2 µM,"[7]; SNK, 0.2 µM, read-out: residual activity",103%
same,remaining activity at 1 µM,"[7]; SNK, 1 µM, read-out: residual activity",97.3%
same,remaining activity at 0.2 µM,"[8]; 0.2 µM 2015, read-out: FER residual activity",125%
same,remaining activity at 1 µM,"[8]; 1 µM 2015, read-out: FER residual activity",102%
same,remaining activity at 0.2 µM,"[8]; FER, 0.2 µM, read-out: residual activity",125%
same,remaining activity at 1 µM,"[8]; FER, 1 µM, read-out: residual activity",102%
same,remaining activity at 0.2 µM,"[9]; 0.2 µM 2015, read-out: JAK1 residual activity",86.7%
same,remaining activity at 1 µM,"[9]; 1 µM 2015, read-out: JAK1 residual activity",99.8%
same,remaining activity at 0.2 µM,"[9]; JAK1, 0.2 µM, read-out: residual activity",86.7%
same,remaining activity at 1 µM,"[9]; JAK1, 1 µM, read-out: residual activity",99.8%
